# Experimental data from article PMC9380671, “Development of spiro-3-indolin-2-one containing compounds of antiproliferative and anti-SARS-CoV-2 properties” (Scientific Reports, 2022).
# Read-outs that look alike come from different tables or passages of the source.
# Assays:
# [1] = tested on: HCT116 (colon) cancer cell line; assay: MTT antiproliferation, HCT116; assay type: cell-based, human; conditions: for IC50: Homo sapiens, HCT-116, 72 h, read-out: IC50 (µM) ± SEM HCT116; for SI (selectivity index) HCT116: IC50 of RPE1/IC50 of cancer cell line
# In short: (§1)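 Cells seeded 30000/well for 24 h, then treated for 72 h with triplicate wells per dose; 0.5% DMSO as negative control. MTT (2.5 mg ml^-1) added for 4 h at 37 °C, crystals dissolved in 10% SDS overnight. Surviving fraction = O.D. treated / O.D. control.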
# [2] = tested on: MCF7 (breast) cancer cell line; assay: MTT antiproliferation, MCF7; assay type: cell-based, human; conditions: for IC50: Homo sapiens, MCF7, 72 h, read-out: IC50 (µM) ± SEM MCF7; for SI (selectivity index) MCF7: IC50 of RPE1/IC50 of cancer cell line
# In short: as §1
# AChE = AChE (Homo sapiens, UniProt P22303); assay: AChE inhibition (DTNB, acetylthiocholine); assay type: biochemical; conditions: for IC50: read-out: AChE (IC50, μM) ± SD
# AChE, sequence (P22303 32-614): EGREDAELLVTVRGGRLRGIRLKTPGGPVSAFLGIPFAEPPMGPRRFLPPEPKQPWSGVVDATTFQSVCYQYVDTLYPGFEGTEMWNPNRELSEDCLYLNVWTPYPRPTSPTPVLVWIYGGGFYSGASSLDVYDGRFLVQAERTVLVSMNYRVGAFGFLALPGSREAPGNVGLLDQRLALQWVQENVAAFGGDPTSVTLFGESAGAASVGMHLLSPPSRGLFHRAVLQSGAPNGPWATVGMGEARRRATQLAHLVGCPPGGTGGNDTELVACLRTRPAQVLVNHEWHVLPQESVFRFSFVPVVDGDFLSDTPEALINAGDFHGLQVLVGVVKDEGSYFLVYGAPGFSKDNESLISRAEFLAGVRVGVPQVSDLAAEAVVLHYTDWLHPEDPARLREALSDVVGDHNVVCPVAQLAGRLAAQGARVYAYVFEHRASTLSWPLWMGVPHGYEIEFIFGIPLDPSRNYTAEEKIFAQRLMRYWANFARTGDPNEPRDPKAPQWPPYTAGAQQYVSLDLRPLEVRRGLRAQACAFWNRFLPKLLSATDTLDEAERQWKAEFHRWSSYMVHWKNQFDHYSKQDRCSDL
# Procedure: All compounds were dissolved in MeOH.
# [3] = tested on: PaCa2 (pancreatic) cancer cell line; assay: MTT antiproliferation, PaCa-2; assay type: cell-based, human; conditions: for IC50: Homo sapiens, PaCa-2, 72 h, read-out: IC50 (µM) ± SEM PaCa-2; for SI (selectivity index) PaCa-2: IC50 of RPE1/IC50 of cancer cell line
# [4] = tested on: A431 (skin squamous) cancer cell line; assay: MTT antiproliferation, A431; assay type: cell-based, human; conditions: for IC50: Homo sapiens; for SI (selectivity index) A431: IC50 of RPE1/IC50 of cancer cell line
# In short: as §1
# [5] = tested on: SARS-CoV-2 (hCoV-19/Egypt/NRC-03/2020); assay: Vero-E6 cell viral infection model, anti-SARS-CoV-2 IC50 (CPE, crystal violet); assay type: cell-based; conditions: for IC50: Severe acute respiratory syndrome coronavirus 2, Vero C1008; for SI = CC50/IC50: Vero-E6, SARS-CoV-2
# [6] = A-431, 72 h, read-out: IC50 (µM) ± SEM A431
# [7] = A-431, read-out: Observed log(IC50, μM) (A431) (converted)
# [8] = Vero-E6, 72 h, reduction of virus-induced CPE, read-out: IC50 (µM) SARS-CoV-2
# [9] = log of observed IC50 in μM, read-out: Observed log(IC50, μM) (SARS-CoV-2) (converted)
Compound,IC50 [1] [µM],SI (selectivity index) HCT116 [1],IC50 [2] [µM],SI (selectivity index) MCF7 [2],SI = IC50 (AChE)/IC50 (BChE) (AChE),IC50 (AChE) [µM],IC50 [3] [µM],SI (selectivity index) PaCa-2 [3],"IC50 [4, 6] [µM]","IC50 [4, 7] [µM]",SI (selectivity index) A431 [4],"IC50 [5, 8] [µM]","IC50 [5, 9] [µM]",SI = CC50/IC50 [5],"efficacy, times more than the standard reference 5-fluorouracil (A431) ([4]; ratio of IC50 values)"
"CCS(=O)(=O)N1C/C(=C\c2ccc(Cl)cc2)C(=O)C2(C1)C(c1ccc(Cl)cc1)CN(C)C21C(=O)Nc2ccc(Cl)cc21 (centres unmarked) [Compound 6l, (E)-5-Chloro-5″-(4-chlorobenzylidene)-4′-(4-chlorophenyl)-1″-(ethylsulfonyl)-1′-methyldispiro[indoline-3,2′-pyrrolidine-3′,3″-piperidine]-2,4″-dione]",4.11 ± 0.41,> 12.2,3.99 ± 0.31,> 12.5,2.0,23.6 ± 7.73,11.9 ± 0.83,> 4.2,3.69 ± 0.33,3.69,> 13.5,31.4,31.4,15.1,–
"CN1CC(c2ccc(Br)cc2)C2(CN(S(C)(=O)=O)C/C(=C\c3ccc(Br)cc3)C2=O)C12C(=O)Nc1ccccc12 (centres unmarked) [Compound 6m, (E)-5″-(4-Bromobenzylidene)-4′-(4-bromophenyl)-1′-methyl-1″-(methylsulfonyl)dispiro[indoline-3,2′-pyrrolidine-3′,3″-piperidine]-2,4″-dione]",3.24 ± 0.27,4.6,3.6 ± 0.19,4.1,1.1,29.7 ± 4.05,12.5 ± 0.67,1.2,2.43 ± 0.18,2.43,6.1,8.92,8.92,17.9,about 9.6 times
